How the values were obtained:
sugar beet = test: Test B pre/postemergence sugar beet; format: in vivo, Beta vulgaris
How it was run: (§1)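 Test chemicals in a non-phytotoxic solvent mixture with surfactant were sprayed preemergence onto planted seeds and postemergence onto plants 2 to 18 cm tall (1- to 4-leaf stage). After twelve to sixteen days in a greenhouse, injury was visually rated against untreated controls from 0 (no effect) to 10 (complete control).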

pigweed = test: Test B pre/postemergence pigweed; format: in vivo, Amaranthus retroflexus
How it was run: as §1

crabgrass = test: Test B pre/postemergence crabgrass; format: in vivo, Digitaria sanguinalis
How it was run: as §1

morningglory = test: Test B pre/postemergence morningglory; format: in vivo, Ipomoea hederacea
How it was run: as §1

corn = test: Test B pre/postemergence corn; format: in vivo, Zea mays
How it was run: as §1

bedstraw = test: Test B pre/postemergence bedstraw; format: in vivo, Galium aparine
How it was run: as §1

purple nutsedge = test: Test B pre/postemergence purple nutsedge; format: in vivo, Cyperus rotundus
How it was run: as §1

velvetleaf = test: Test B pre/postemergence velvetleaf; format: in vivo, Abutilon theophrasti
How it was run: as §1

wild oat = test: Test B pre/postemergence wild oat; format: in vivo, Avena fatua
How it was run: as §1

giant foxtail = test: Test B pre/postemergence giant foxtail; format: in vivo, Setaria faberii
How it was run: as §1

wheat = test: Test B pre/postemergence wheat; format: in vivo, Triticum aestivum
How it was run: as §1

rape = test: Test B pre/postemergence rape; format: in vivo, Brassica napus
How it was run: as §1

surinam grass = test: Test B pre/postemergence surinam grass; format: in vivo, Brachiaria decumbens
How it was run: as §1

cocklebur = test: Test B pre/postemergence cocklebur; format: in vivo, Xanthium strumarium
How it was run: as §1

soybean = test: Test B pre/postemergence soybean; format: in vivo, Glycine max
How it was run: as §1

blackgrass = test: Test B pre/postemergence blackgrass; format: in vivo, Alopecurus myosuroides
How it was run: as §1

[1] = Postemergence, Rate 125 g/ha, scale of 0 to 10 where 0 is no effect and 10 is complete control
[2] = Preemergence, Rate 62 g/ha, scale of 0 to 10 where 0 is no effect and 10 is complete control
[3] = Preemergence, Rate 125 g/ha, 0 is no effect, 10 is complete control
[4] = Preemergence, Rate 250 g/ha, scale 0 to 10, 0 is no effect, 10 is complete control
[5] = Preemergence, Rate 500 g/ha, scale 0 to 10 (0 no effect, 10 complete control)
[6] = Rate 62 g/ha, Postemergence, scale of 0 to 10 where 0 is no effect and 10 is complete control
[7] = Rate 250 g/ha, Postemergence, scale 0 to 10, 0 is no effect, 10 is complete control
[8] = Rate 500 g/ha, Postemergence, scale 0 to 10
[9] = Preemergence, Rate 125 g/ha, scale of 0 to 10 where 0 is no effect and 10 is complete control
[10] = Preemergence, Rate 250 g/ha, scale 0 to 10 (0 no effect, 10 complete control)
[11] = Preemergence, Rate 500 g/ha, scale of 0 to 10 where 0 is no effect and 10 is complete control

Cc1ccccc1-n1c(=O)on(C(=O)N(c2ccc(Br)cc2)C(C)C)c1=O [Compound 175]
Sugarbeets plant response rating (sugar beet; [1]): 0
Sugarbeets plant response rating (sugar beet; [2]): 0
Sugarbeets plant response rating (0 to 10 scale) (sugar beet; [3]): 0
Sugarbeets plant response rating (sugar beet; [4]): 0
Sugarbeets plant response rating (sugar beet; [5]): 0
Sugarbeets plant response rating (sugar beet; [6]): 0
Plant response rating, Sugarbeets (sugar beet; [7]): 0
Sugarbeets plant response rating (sugar beet; [8]): 0
Redroot pigweed plant response rating (pigweed; [1]): 0
Redroot pigweed plant response rating (pigweed; [2]): 0
Redroot pigweed plant response rating (0 to 10 scale) (pigweed; [3]): 0
Redroot pigweed plant response rating (pigweed; [4]): 0
Redroot pigweed plant response rating (pigweed; [5]): 0
Redroot pigweed plant response rating (pigweed; [6]): 0
Plant response rating, Redroot pigweed (pigweed; [7]): 0
Redroot pigweed plant response rating (pigweed; [8]): 0
Crabgrass plant response rating (crabgrass; [1]): 0
Crabgrass plant response rating (crabgrass; [2]): 5
Crabgrass plant response rating (0 to 10 scale) (crabgrass; [3]): 6
Crabgrass plant response rating (crabgrass; [4]): 6
Crabgrass plant response rating (crabgrass; [5]): 8
Crabgrass plant response rating (crabgrass; [6]): 0
Plant response rating, Crabgrass (crabgrass; [7]): 0
Crabgrass plant response rating (crabgrass; [8]): 0
Morningglory plant response rating (morningglory; [1]): 1
Morningglory plant response rating (morningglory; [2]): 0
Morningglory plant response rating (0 to 10 scale) (morningglory; [3]): 0
Morningglory plant response rating (morningglory; [4]): 0
Morningglory plant response rating (morningglory; [5]): 0
Morningglory plant response rating (morningglory; [6]): 1
Plant response rating, Morningglory (morningglory; [7]): 3
Morningglory plant response rating (morningglory; [8]): 4
Corn plant response rating (corn; [1]): 0
Corn plant response rating (corn; [2]): 0
Corn plant response rating (0 to 10 scale) (corn; [3]): 0
Corn plant response rating (corn; [4]): 0
Corn plant response rating (corn; [5]): 0
Corn plant response rating (corn; [6]): 0
Plant response rating, Corn (corn; [7]): 0
Corn plant response rating (corn; [8]): 0
Bedstraw plant response rating (bedstraw; [1]): 0
Bedstraw plant response rating (bedstraw; [2]): 0
Bedstraw plant response rating (0 to 10 scale) (bedstraw; [3]): 2
Bedstraw plant response rating (bedstraw; [4]): 9
Bedstraw plant response rating (bedstraw; [5]): 9
Bedstraw plant response rating (bedstraw; [6]): 0
Plant response rating, Bedstraw (bedstraw; [7]): 0
Bedstraw plant response rating (bedstraw; [8]): 0
Nutsedge plant response rating (purple nutsedge; [1]): 0
Nutsedge plant response rating (purple nutsedge; [2]): 0
Nutsedge plant response rating (0 to 10 scale) (purple nutsedge; [3]): 0
Nutsedge plant response rating (purple nutsedge; [4]): 3
Nutsedge plant response rating (purple nutsedge; [5]): 3
Nutsedge plant response rating (purple nutsedge; [6]): 0
Plant response rating, Nutsedge (purple nutsedge; [7]): 0
Nutsedge plant response rating (purple nutsedge; [8]): 0
Velvetleaf plant response rating (velvetleaf; [2]): 0
Velvetleaf plant response rating (0 to 10 scale) (velvetleaf; [3]): 0
Velvetleaf plant response rating (velvetleaf; [4]): 0
Velvetleaf plant response rating (velvetleaf; [5]): 0
Plant response rating, Velvetleaf (velvetleaf; [7]): 3
Velvetleaf plant response rating (velvetleaf; [8]): 3
Wild oats plant response rating (wild oat; [2]): 0
Wild oats plant response rating (0 to 10 scale) (wild oat; [3]): 0
Wild oats plant response rating (wild oat; [4]): 0
Wild oats plant response rating (wild oat; [5]): 0
Plant response rating, Wild oats (wild oat; [7]): 0
Wild oats plant response rating (wild oat; [8]): 0
Giant foxtail plant response rating (giant foxtail; [1]): 0
Giant foxtail plant response rating (giant foxtail; [2]): 5
Giant foxtail plant response rating (0 to 10 scale) (giant foxtail; [3]): 7
Giant foxtail plant response rating (giant foxtail; [4]): 8
Giant foxtail plant response rating (giant foxtail; [5]): 8
Giant foxtail plant response rating (giant foxtail; [6]): 0
Plant response rating, Giant foxtail (giant foxtail; [7]): 0
Giant foxtail plant response rating (giant foxtail; [8]): 0
Wheat plant response rating (wheat; [2]): 0
Wheat plant response rating (0 to 10 scale) (wheat; [3]): 0
Wheat plant response rating (wheat; [4]): 0
Wheat plant response rating (wheat; [5]): 0
Plant response rating, Wheat (wheat; [7]): 0
Wheat plant response rating (wheat; [8]): 3
Rape plant response rating (rape; [1]): 0
Rape plant response rating (rape; [2]): 0
Rape plant response rating (0 to 10 scale) (rape; [3]): 0
Rape plant response rating (rape; [4]): 0
Rape plant response rating (rape; [5]): 0
Rape plant response rating (rape; [6]): 0
Plant response rating, Rape (rape; [7]): 0
Rape plant response rating (rape; [8]): 0
B. signalgrass plant response rating (surinam grass; [1]): 0
B. signalgrass plant response rating (surinam grass; [2]): 0
B. signalgrass plant response rating (0 to 10 scale) (surinam grass; [3]): 0
B. signalgrass plant response rating (surinam grass; [4]): 0
B. signalgrass plant response rating (surinam grass; [5]): 0
B. signalgrass plant response rating (surinam grass; [6]): 0
Plant response rating, B. signalgrass (surinam grass; [7]): 0
B. signalgrass plant response rating (surinam grass; Rate 500 g/ha, Postemergence, scale 0 to 10, 0 no effect, 10 complete control): 0
Cocklebur plant response rating (cocklebur; [1]): 0
Cocklebur plant response rating (cocklebur; [2]): 0
Cocklebur plant response rating (0 to 10 scale) (cocklebur; [3]): 0
Cocklebur plant response rating (cocklebur; [4]): 0
Cocklebur plant response rating (cocklebur; [5]): 0
Cocklebur plant response rating (cocklebur; [6]): 0
Plant response rating, Cocklebur (cocklebur; [7]): 2
Cocklebur plant response rating (cocklebur; [8]): 3
Soybean plant response rating (soybean; [1]): 1
Soybean plant response rating (soybean; [2]): 0
Soybean plant response rating (0 to 10 scale) (soybean; [3]): 0
Soybean plant response rating (soybean; [4]): 0
Soybean plant response rating (soybean; [5]): 0
Soybean plant response rating (soybean; [6]): 1
Plant response rating, Soybean (soybean; [7]): 1
Soybean plant response rating (soybean; [8]): 1
Blackgrass plant response rating (blackgrass; [1]): 0
Blackgrass plant response rating (blackgrass; [2]): 0
Blackgrass plant response rating (0 to 10 scale) (blackgrass; [3]): 0
Blackgrass plant response rating (blackgrass; [4]): 0
Blackgrass plant response rating (blackgrass; [5]): 0
Blackgrass plant response rating (blackgrass; [6]): 0
Plant response rating, Blackgrass (blackgrass; [7]): 0
Blackgrass plant response rating (blackgrass; [8]): 0

CC(C)N(C(=O)n1oc(=O)n(C(C)C=O)c1=O)c1ccccc1 (stereo not shown) [Compound 693]
Sugarbeets plant response rating (sugar beet; [2]): 0
Plant response rating, Sugarbeets (sugar beet; [9]): 0
Redroot pigweed plant response rating (pigweed; [2]): 0
Plant response rating, Redroot pigweed (pigweed; [9]): 0
Crabgrass plant response rating (crabgrass; [2]): 0
Plant response rating, Crabgrass (crabgrass; [9]): 0
Plant response rating, Crabgrass (crabgrass; [10]): 0
Morningglory plant response rating (morningglory; [2]): 0
Plant response rating, Morningglory (morningglory; [9]): 0
Corn plant response rating (corn; [2]): 0
Plant response rating, Corn (corn; [9]): 0
Plant response rating, Corn (corn; [10]): 0
Bedstraw plant response rating (bedstraw; [2]): 0
Plant response rating, Bedstraw (bedstraw; [9]): 0
Plant response rating, Bedstraw (bedstraw; [10]): 0
Plant response rating, Bedstraw (bedstraw; [11]): 0
Plant response rating, Nutsedge (purple nutsedge; [9]): 0
Velvetleaf plant response rating (velvetleaf; [2]): 0
Plant response rating, Velvetleaf (velvetleaf; [9]): 0
Wild oats plant response rating (wild oat; [2]): 0
Plant response rating, Wild oats (wild oat; [9]): 0
Giant foxtail plant response rating (giant foxtail; [2]): 0
Plant response rating, Giant foxtail (giant foxtail; [9]): 0
Wheat plant response rating (wheat; [2]): 0
Plant response rating, Wheat (wheat; [9]): 0
Rape plant response rating (rape; [2]): 0
Plant response rating, Rape (rape; [9]): 0
B. signalgrass plant response rating (surinam grass; [2]): 0
Plant response rating, B. signalgrass (surinam grass; [9]): 0
Plant response rating, B. signalgrass (surinam grass; [10]): 0
Plant response rating, B. signalgrass (surinam grass; [11]): 0
Cocklebur plant response rating (cocklebur; [2]): 0
Plant response rating, Cocklebur (cocklebur; [9]): 0
Plant response rating, Cocklebur (cocklebur; [10]): 0
Plant response rating, Cocklebur (cocklebur; [11]): 0
Soybean plant response rating (soybean; [2]): 0
Plant response rating, Soybean (soybean; [9]): 0
Blackgrass plant response rating (blackgrass; [2]): 0
Plant response rating, Blackgrass (blackgrass; [9]): 0
Plant response rating, Blackgrass (blackgrass; [10]): 0
Plant response rating, Blackgrass (blackgrass; [11]): 2

Reference: patent publication US6737383B1, “Herbicidal oxadiazolidines” (priority 1999, dated 2004)
